Data taken from US20240382466A1, “PHARMACEUTICAL COMPOSITION FOR PREVENTING OR TREATING ALZHEIMER’S DISEASE” (priority 2021, published 2024).

How the values were obtained:
microglia = details: Alzheimer's disease inflammation model; cited from earlier work
GSK-3 = details: cited from earlier work
[1] = tested on: mice in a model of Alzheimer's disease; experiment: Eight-arm maze behavioral experiment in D-galactose/AlCl3 mouse model of Alzheimer's disease; type: in vivo, Kunming mice; details: 8 weeks, x ± s, n = 10
Description: A food providing device is arranged at an end of each arm of an eight-arm maze. The spatial memory ability of an experimental animal may be reflected according to the strategy of analyzing feeding of an animal, namely the parameters of the times, time, correct times, wrong times, routes and the like of entering each arm. In contrast, the eight-arm maze is simple, convenient and feasible to operate, can distinguish short-term working memory from long-term reference memory, and is widely used for evaluating a learning and memory cognitive experiment. The main analysis indexes of the eight-arm maze are name, grouping, working memory error latency, reference memory error latency, total correct times, total arm entering times, working memory error times, reference memory error times, correct latency, correct rate, working memory error rate, reference memory error rate, correct times before first error, test time, a track graph and the like. […] 100 SPF-grade Kunming mice, each half male and female, weighed 20-22 g, were provided by the Jinan Pengyue Experimental Animal Breeding Co., Ltd with the animal certificate number: SCXK(Lu)20190003. The mice were bred to freely drink and eat in an SPF-grade animal breeding room with strictly controlled environmental conditions: the temperature of 20-26° C., the humidity of 40-70%, the light and dark cycle of 12 h:12 h, and a growing and breeding feed. All mice were first trained in an eight-arm maze which was a common model for evaluating the learning and memory ability of an animal. The animals were adaptively fed for 1 week, weighed, and fasted for 24 hours. Then after each day of training, the mice were restrictively given a normal diet to maintain the body weight of the mice between 80% and 85% of that of mice fed normally. On the second day, food particles (4-5 particles each arm with the diameter of about 3-4 mm) were sprayed in each arm and a center area of the maze. Then 4 animals were placed in the center of the maze simultaneously (doors to each arm were opened). The animals were freely fed and explored for 10 min. On the third day, the training of the second day was repeated. This process allowed the animals to become familiar with the maze environment without very strong stress. On the fourth day, the animals were trained individually: one food particle was placed in each arm near an outer food box and the animals ate freely. The animals were removed after the food particles were consumed or 10 min later. On the fifth day, the food was placed in the food box and the previous day of training was repeated 2 times a day. After the sixth day, 4 arms were randomly selected and one food particle was placed in each arm; each arm door was closed and the animals were placed in the center of the maze; and after 30s, the arm door was opened, the animals moved freely in the maze and took the food particle until the animals ate the food particles of all 4 arms. If the food particles were not eaten up after 10 min, the experiment was terminated. The animals were trained twice a day with the interval of 1 h or more. […] The mice meeting the learning standard were screened, 10 of them were randomly selected as a normal group, 10 as a model group, and the others as experimental groups. Except that the mice in the normal group were intraperitoneally injected with the same amount of normal saline and intragastrically administrated with the same amount of double distilled water, the mice of the other groups were all intraperitoneally injected with D-galactose (500 mg/kg/D) (prepared with normal saline) and intragastrically administrated AlCl3 (20 mg/kg/D) (prepared with double distilled water). The mice in the experimental groups were intragastrically administrated once a day according to the grouping and administration dose and the mice in the normal group and the model group were intragastrically administrated with the same amount of purified water for 8 weeks successively. […]

[2] = tested on: mice in a model of Alzheimer's disease; experiment: Contents of tryptophan, L-kynurenine and 5-hydroxytryptamine in serum by high performance liquid chromatography; type: in vivo, Kunming mice; details: 8 weeks, x ± s, n = 10
Procedure: 100 SPF-grade Kunming mice, each half male and female, weighed 20-22 g, were provided by the Jinan Pengyue Experimental Animal Breeding Co., Ltd with the animal certificate number: SCXK(Lu)20190003. The mice were bred to freely drink and eat in an SPF-grade animal breeding room with strictly controlled environmental conditions: the temperature of 20-26° C., the humidity of 40-70%, the light and dark cycle of 12 h:12 h, and a growing and breeding feed. The mice meeting the learning standard were screened, 10 of them were randomly selected as a normal group, 10 as a model group, and the others as experimental groups. Except that the mice in the normal group were intraperitoneally injected with the same amount of normal saline and intragastrically administrated with the same amount of double distilled water, the mice of the other groups were all intraperitoneally injected with D-galactose (500 mg/kg/D) (prepared with normal saline) and intragastrically administrated AlCl3 (20 mg/kg/D) (prepared with double distilled water). The mice in the experimental groups were intragastrically administrated once a day according to the grouping and administration dose and the mice in the normal group and the model group were intragastrically administrated with the same amount of purified water for 8 weeks successively. The mice in the experimental groups were divided into 8 groups of low- and high-dose anhydroicaritin groups, low- and high-dose compound I groups, and composition A, B, C, and D groups with 10 mice in each group. […] After the last administration, […] of blood was taken from each eyeball of each group of the mice subjected to the eight-arm maze test and stood overnight at 4° C. in a test tube, and a supernatant was taken the following day for later use. The contents of tryptophan, L-kynurenine, and 5-hydroxytryptamine in blood serum were detected by a high performance liquid chromatography.

[3] = high-dose compound I group, 32 mg/(kg·d) intragastric once a day
[4] = low-dose compound I group, 0.6 mg/(kg·d) intragastric once a day
[5] = high-dose compound I group, 32 mg/(kg·d) intragastric
[6] = low-dose compound I group, 0.6 mg/(kg·d) intragastric
[7] = high-dose anhydroicaritin group, 21.2 mg/(kg·d) intragastric once a day
[8] = low-dose anhydroicaritin group, 3.2 mg/(kg·d) intragastric once a day
[9] = high-dose anhydroicaritin group, 21.2 mg/(kg·d) intragastric
[10] = low-dose anhydroicaritin group, 3.2 mg/(kg·d) intragastric

## COc1ccc(-c2oc3c(CC=C(C)C)c(O)cc(O)c3c(=O)c2O)cc1 [icaritin]
microglia
  activation of microglia induced by LPS: inhibit excessive activation of microglia induced by LPS
  learning and memory ability of mice: improve the learning and memory ability of mice
GSK-3
  GSK-3 activity: inhibiting GSK-3 activity

## N=C(N)NCCNc1nonc1/C(=N/O)Nc1ccc(F)c(Br)c1 [compound I]
[1]; [3]
  Average exploration time (s): 189.95 ± 1.04^+ s
  Reference memory error frequency: 0.21 ± 0.04^+
  Working memory error frequency: 0.44 ± 0.05^+
[1]; [4]
  Average exploration time (s): 190.20 ± 1.09^+ s
  Reference memory error frequency: 0.23 ± 0.05^+
  Working memory error frequency: 0.52 ± 0.03^++
[2]; [5]
  5-hydroxytryptamine (μg/ml): 1.28 ± 0.05^+ μg/ml
  L-kynurenine (μg/ml): 0.33 ± 0.01^+ μg/ml
  Tryptophan (μg/ml): 18.08 ± 0.02^+ μg/ml
[2]; [6]
  5-hydroxytryptamine (μg/ml): 1.29 ± 0.05^+ μg/ml
  L-kynurenine (μg/ml): 0.35 ± 0.03^+ μg/ml
  Tryptophan (μg/ml): 17.92 ± 0.95^+ μg/ml

## COc1ccc(-c2oc3c(CC=C(C)C)c(O)cc(O)c3c(=O)c2O)cc1 [anhydroicaritin]
[1]; [7]
  Average exploration time (s): 189.81 ± 1.19^+ s
  Reference memory error frequency: 0.20 ± 0.04^+
  Working memory error frequency: 0.44 ± 0.06^+
[1]; [8]
  Average exploration time (s): 190.17 ± 1.18^+ s
  Reference memory error frequency: 0.21 ± 0.03^+
  Working memory error frequency: 0.45 ± 0.02^+
[2]; [9]
  5-hydroxytryptamine (μg/ml): 1.30 ± 0.07^+ μg/ml
  L-kynurenine (μg/ml): 0.33 ± 0.02^+ μg/ml
  Tryptophan (μg/ml): 17.90 ± 0.30^+ μg/ml
[2]; [10]
  5-hydroxytryptamine (μg/ml): 1.29 ± 0.05^+ μg/ml
  L-kynurenine (μg/ml): 0.33 ± 0.01^+ μg/ml
  Tryptophan (μg/ml): 17.79 ± 0.65^+ μg/ml
